Assay results as given in article PMC8344022, “Small-molecule inhibitor of AF9/ENL-DOT1L/AF4/AFF4 interactions suppresses malignant gene expression and tumor growth” (Theranostics, 2021).

Legend:
AF9-DOT1L interaction = target: T1, AF9-DOT1L interaction (Homo sapiens, UniProt P42568); assay: Alpha assay, AF9 AHD-DOT1L peptide interaction; format: binding; details: read-out: IC50, inhibition of AF9-DOT1L interaction
T1 construct: cDNA for human AF9 AHD domain (475-568) and ENL AHD domain (489-559) was synthesized; made in house; host or cells: E. coli BL21(DE3)
T1 sequence (P42568 475-568): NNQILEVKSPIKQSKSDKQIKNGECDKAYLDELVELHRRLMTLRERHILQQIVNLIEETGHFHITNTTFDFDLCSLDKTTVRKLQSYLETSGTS
Source text: We developed an Alpha (amplified luminescent proximity homogeneous assay) assay to determine the binding and inhibition of the PPI between maltose-binding protein (MBP)-tagged AF9 AHD and a biotin-labeled DOT1L peptide, using AlphaLisa streptavidin donor beads and anti-MBP acceptor beads. Laser excitation to the donor beads generates singlet oxygen radicals, which can travel for <200 nm in solution and cannot reach the free acceptor beads. The PPI brings the DOT1L coated donor beads and AHD coated acceptor beads together, allowing the radicals to activate the acceptor beads and produce luminescence. […] We also developed a fluorescence polarization (FP) assay. A fluorescein-labeled DOT1L peptide has a higher freedom in solution with a lower polarization value.
Alpha assays. Alpha assays were developed using Perkin-Elmer AlphaLisa anti-MBP kit, which contains streptavidin donor beads and anti-MBP acceptor beads. The assay was performed using a MBP-protein (5 nM), a biotinylated peptide (40 nM), and increasing concentrations of a compound in 25 µL buffer (PBS with 0.5 % BSA, pH 7.5) in 384-well plates according to the manufacturer's protocol and measured with a Tecan SPARK microplate reader. Data were imported into Prism (version 5.0), and IC50 values from 3 independent experiments with standard deviation were obtained by using a standard dose-response curve fitting.

[1] = target: T2, AF9 AHD bound to DOT1L-coated beads (Homo sapiens, UniProt P42568); assay: Western blot based pull-down assay; format: binding; details: increasing concentrations
T2 construct: cDNA for human AF9 AHD domain (475-568) and ENL AHD domain (489-559) was synthesized; made in house; host or cells: E. coli BL21(DE3)
Method: A non-optical pull-down assay was used to further validate compound 1. DOT1L-coated beads were incubated with AF9 AHD in the presence of increasing concentrations of 1.
Western blot based pull-down assay. Biotinylated DOT1L peptide (0.25 mg/mL) was incubated with streptavidin agarose beads in PBS containing 0.1% Triton X-100 (400 µL) for 3h to yield, after washing, DOT1L-coated beads. MBP-AF9 AHD (0.2 µM, 40 µL) was pre-incubated with a compound for 30 min before adding to the beads. After 6 hours incubation at 4 °C, the beads were collected, thoroughly washed, and subjected to SDS-PAGE and analyzed by Western blot using an MBP Mouse mAb (#2396, Cell signaling).

[2] = test system: HoxA9, Meis1 and Myc expression in MV4;11 cells; assay: qPCR of MLL target genes; format: cell-based; details: 4 days
Method: (§1) Next, compound 1 was tested for its ability to change expression of characteristic MLL-r leukemia genes HoxA9, Meis1 and Myc. Myc is also overexpressed in a broad range of AML and other cancers. […] (Figure S5), presumably because SEC is not recruited there.
(§2) RNA extraction and Quantitative real-time PCR (qPCR). 10^5 cells/ml were incubated with a compound for 4 days and the RNA was extracted using RNeasy mini kit (#74104, Qiagen). 100-1000 ng of total RNA was reverse transcribed using iScript™ Reverse Transcription Supermix (Bio-Rad) using the manufacturer's protocol. Quantitative real-time PCR was carried out using Fast SYBR Green Master Mix (Applied Biosystems) according to the manufacturer's instructions. Measurements were performed in triplicate, using GAPDH as the reference gene. Real-time PCR was performed using Biosystems Step One Plus detection system. The following sequences of primers are used: […]

[3] = test system: HoxA9, Meis1 and Myc expression in Molm-13 cells; assay: qPCR of MLL target genes; format: cell-based; details: 4 days
Method: as §1, §2

For `CC(C)(C)c1ccc(-n2cc(C(=O)NC3CCNCC3)nc2-c2ccccc2)cc1` [Compound 1], the IC50 (AF9-DOT1L interaction) was 3.5 µM, the “Beads-bound AF9 AHD in pull-down (Western blot)” value [1] was “reduced beads-bound AF9 AHD with a similar IC50” and the “Expression of MLL target genes HoxA9, Meis1 and Myc” value [2] was “dose-dependently suppressed expression”. The “Expression of MLL target genes HoxA9, Meis1 and Myc” value [3] was “dose-dependently suppressed expression”.
